From patent US20200055896A1, “SUBSTRATES RECOGNIZED BY FIBROBLAST ACTIVATION PROTEIN (FAP) AND METHODS OF USING THE SAME” (GENENTECH, INC., priority 2017, published 2020)
Entries after “also recorded” stand apart in the source; their conditions may differ.

Experiments:
[1] = tested on: GP probe cleaving activity in plasma; experiment: GP cleavage in mouse plasma in the presence of cpd60 and/or KYP; assay type: biochemical, mice
Description: (§1) Mouse plasma samples were prepared in K3-EDTA MiniCollect tubes (Greiner Bio-One, 450475) and frozen immediately at −80° C. prior to analysis. Human serum samples were obtained from healthy donors or purchased from Discovery Life Sciences, Inc. (Los Osos, Calif.).
(§2) Peptides of the region flanking the C-terminal human FGF21 cleavage site (VGPSQG) or a variant with D-alanine at P2 (VaPSQG) were synthesized (Anaspec, Inc.), containing an amine-terminal donor (HyLite Fluor 488 or Cy5.5 for aP NIRF) and a dark quencher-acceptor (QXL 520 or QSY21 for aP NIRF) conjugated to a supplementary C-terminal lysine. ANPFAP (Bioconjugate Chem 23:1704-11) and aP NIRF were synthesized by CPC Scientific (Sunnyvale, Calif.). Assays were conducted at 37° C. in 50 mM HEPES (pH 7.2), 150 mM NaCl, 1 mM EDTA, 0.1 mg/ml BSA. The excitation/emission wavelengths of cleaved peptide are 490/520 nm or 675/695 nm for ANPFAP and aP NIRF. Fluorescence was monitored on a Tecan M1000 Pro plate reader in kinetic mode. Except where indicated otherwise, measurements of serum or plasma FAP activity were performed with the peptide substrate concentration at 6 μM and a 10-fold dilution of serum or plasma in assay buffer.

circulating FAP activity = target: T1, circulating FAP activity (Mus musculus, UniProt P97321); experiment: In vivo pharmacological FAP inhibition: mice fed chow with cpd60, plasma FAP activity by aP peptide; settings: chow with 100 ppm cpd60 ad libitum, day 4 and 7
T1 construct: the extracellular domain encoding the active enzyme can be shed from the cell surface; from tissue; host or cells: mouse plasma (C57BL/6 background; Fap +/+, +/-, -/-)
T1 sequence (P97321 24-761 limits assumed): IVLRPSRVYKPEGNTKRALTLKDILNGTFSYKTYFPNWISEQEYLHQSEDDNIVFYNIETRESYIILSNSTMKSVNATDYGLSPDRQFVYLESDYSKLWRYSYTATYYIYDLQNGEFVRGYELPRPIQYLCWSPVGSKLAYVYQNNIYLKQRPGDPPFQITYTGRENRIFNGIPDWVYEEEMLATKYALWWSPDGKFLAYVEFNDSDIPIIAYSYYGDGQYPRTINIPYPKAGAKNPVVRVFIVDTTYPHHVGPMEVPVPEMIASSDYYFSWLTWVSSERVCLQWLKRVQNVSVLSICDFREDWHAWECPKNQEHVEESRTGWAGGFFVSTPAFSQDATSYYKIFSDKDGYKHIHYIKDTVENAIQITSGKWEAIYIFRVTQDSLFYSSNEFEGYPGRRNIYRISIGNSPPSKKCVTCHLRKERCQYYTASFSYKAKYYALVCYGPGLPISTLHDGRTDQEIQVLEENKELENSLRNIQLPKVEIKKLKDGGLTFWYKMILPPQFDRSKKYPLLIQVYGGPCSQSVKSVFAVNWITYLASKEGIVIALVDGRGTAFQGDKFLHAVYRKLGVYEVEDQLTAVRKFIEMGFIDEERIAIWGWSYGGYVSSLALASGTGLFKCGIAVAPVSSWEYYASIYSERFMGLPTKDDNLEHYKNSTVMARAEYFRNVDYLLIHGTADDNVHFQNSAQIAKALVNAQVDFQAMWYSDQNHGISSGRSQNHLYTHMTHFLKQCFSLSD
Description: Mice were maintained in a pathogen-free animal facility at 21° C. under standard 12 h light/12 h dark cycle with access to normal chow (Labdiet 5010) and water ad libitum unless otherwise indicated. Generation of Fap KO mice was described previously (Dunshee, et al. (2016) J Biol Chem 291:5986-96).
as §1
as §2, with “Except where indicated otherwise, measurements of serum or plasma FAP activity were performed with the peptide substrate concentration at 6 μM and a 10-fold dilution of serum or plasma in assay buffer.” left out

FAP-related activity = settings: cynomolgus monkeys, cited from earlier work
recombinant human FAP = target: T2, recombinant human FAP (Homo sapiens, UniProt Q12884); experiment: FRET-quench assay: probe cleavage by recombinant human FAP; assay type: biochemical; settings: 10 nM enzyme
T2 construct: (residues L26-D760 and L26-D761, respectively); octa-His (N); made in house; host or cells: transiently transfected CHO cells (conditioned media)
T2 sequence (Q12884 26-760): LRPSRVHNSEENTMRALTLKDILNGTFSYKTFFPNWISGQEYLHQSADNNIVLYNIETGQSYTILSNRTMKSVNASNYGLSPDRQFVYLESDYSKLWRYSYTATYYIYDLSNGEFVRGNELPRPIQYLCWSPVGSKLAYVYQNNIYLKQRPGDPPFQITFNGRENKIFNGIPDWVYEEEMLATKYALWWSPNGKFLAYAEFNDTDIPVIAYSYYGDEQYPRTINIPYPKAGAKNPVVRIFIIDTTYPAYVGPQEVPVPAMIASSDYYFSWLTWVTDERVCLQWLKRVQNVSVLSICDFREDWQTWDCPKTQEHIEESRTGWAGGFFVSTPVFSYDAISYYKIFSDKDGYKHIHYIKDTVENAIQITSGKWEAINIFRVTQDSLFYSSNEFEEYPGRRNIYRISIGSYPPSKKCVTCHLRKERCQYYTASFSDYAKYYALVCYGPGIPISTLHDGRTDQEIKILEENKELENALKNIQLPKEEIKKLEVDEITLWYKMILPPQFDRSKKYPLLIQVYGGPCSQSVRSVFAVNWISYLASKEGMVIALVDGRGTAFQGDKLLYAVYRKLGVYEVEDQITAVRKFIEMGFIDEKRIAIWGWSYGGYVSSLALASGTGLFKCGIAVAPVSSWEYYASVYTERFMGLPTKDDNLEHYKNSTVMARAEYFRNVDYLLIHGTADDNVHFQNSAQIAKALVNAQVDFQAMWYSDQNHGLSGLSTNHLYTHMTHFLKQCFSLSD
Source text: (§3) Human prolyl oligopeptidase (PREP, 4308-SE), DPPIV (1180-SE), DPP9 (5419-SE), and DPPII/DPP7 (3438-SE) proteins were purchased from R&D Systems. Human DPP8 (BML-SE527) protein was purchased from Enzo Life Sciences. N-terminal octa-His-tagged human and mouse FAP proteins containing the extracellular domain (residues L26-D760 and L26-D761, respectively) were purified from the conditioned media of transiently-transfected CHO cells, by immobilized metal affinity chromatography (IMAC), followed by size exclusion chromatography (SEC).
as §2

tissue FAP activity = target: T3, tissue FAP activity (Mus musculus, UniProt P97321); experiment: Ex vivo NIRF imaging of pancreata after i.v. probe in KPP and healthy C57BL/6 mice
T3 construct: from tissue
T3 sequence (P97321 1-761): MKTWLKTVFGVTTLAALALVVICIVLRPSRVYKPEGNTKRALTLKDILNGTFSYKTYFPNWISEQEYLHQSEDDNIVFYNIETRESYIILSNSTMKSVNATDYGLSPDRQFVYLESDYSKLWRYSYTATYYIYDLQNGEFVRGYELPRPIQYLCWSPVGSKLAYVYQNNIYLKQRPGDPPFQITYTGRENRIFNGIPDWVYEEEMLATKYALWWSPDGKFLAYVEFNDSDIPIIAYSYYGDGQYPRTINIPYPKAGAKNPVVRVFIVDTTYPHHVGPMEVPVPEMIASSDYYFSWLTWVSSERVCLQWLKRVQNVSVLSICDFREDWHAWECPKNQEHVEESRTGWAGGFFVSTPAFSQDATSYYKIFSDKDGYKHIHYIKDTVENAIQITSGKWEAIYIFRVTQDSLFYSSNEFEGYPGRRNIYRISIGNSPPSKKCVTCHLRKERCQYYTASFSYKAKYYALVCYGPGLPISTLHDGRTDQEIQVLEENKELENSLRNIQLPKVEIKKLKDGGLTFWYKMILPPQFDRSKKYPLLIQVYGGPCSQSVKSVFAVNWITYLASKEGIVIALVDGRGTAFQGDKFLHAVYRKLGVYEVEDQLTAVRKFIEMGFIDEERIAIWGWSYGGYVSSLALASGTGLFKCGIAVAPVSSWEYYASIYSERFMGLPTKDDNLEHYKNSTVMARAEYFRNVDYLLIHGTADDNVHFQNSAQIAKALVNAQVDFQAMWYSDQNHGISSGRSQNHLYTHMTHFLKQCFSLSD
Source text: The utility of the VaPSQG-NIRF probe for imaging of tissue FAP activity was studied in a genetically engineered mouse model of pancreatic cancer, KrasLSL.G12D/wt;p16/p19fl/fl;Pdx1. Cre, or “KPP” for short (Singh, M. et al. Nat. Biotechnol. 28:585-593 (2010); Aguirre, A. J. et al. Genes Dev. 17:3112-26 (2003)). […] The VaPSQG-NIRF probe was synthesized by CPC Scientific (Sunnyvale, Calif.).
Prior to the imaging study, three KPP mice (9.3 weeks old) with varying tumor volumes were selected based on an in vivo ultrasound scan. Additionally, three healthy C57BL/6 mice (8.3 weeks old) were also studied as controls. One nmol VaPSQG-NIRF probe diluted in 150 microL of PBS was intravenously administered to each mouse via tail vein under anesthesia. […] After 4 hours, the mice were euthanized and pancreas tissues were dissected. The dissected tissues were rinsed with PBS, dried with tissue paper, and put on black paper for ex vivo NIRF imaging. Near infrared images are acquired using a CCD camera (Pearl Trilogy, Li-cor).

recombinant human PREP = target: T4, recombinant human PREP (Homo sapiens, UniProt P48147); experiment: FRET-quench assay: probe cleavage by recombinant human PREP; assay type: biochemical; settings: 10 nM enzyme
T4 construct: purchased R&D Systems 4308-SE
T4 sequence (P48147 1-710): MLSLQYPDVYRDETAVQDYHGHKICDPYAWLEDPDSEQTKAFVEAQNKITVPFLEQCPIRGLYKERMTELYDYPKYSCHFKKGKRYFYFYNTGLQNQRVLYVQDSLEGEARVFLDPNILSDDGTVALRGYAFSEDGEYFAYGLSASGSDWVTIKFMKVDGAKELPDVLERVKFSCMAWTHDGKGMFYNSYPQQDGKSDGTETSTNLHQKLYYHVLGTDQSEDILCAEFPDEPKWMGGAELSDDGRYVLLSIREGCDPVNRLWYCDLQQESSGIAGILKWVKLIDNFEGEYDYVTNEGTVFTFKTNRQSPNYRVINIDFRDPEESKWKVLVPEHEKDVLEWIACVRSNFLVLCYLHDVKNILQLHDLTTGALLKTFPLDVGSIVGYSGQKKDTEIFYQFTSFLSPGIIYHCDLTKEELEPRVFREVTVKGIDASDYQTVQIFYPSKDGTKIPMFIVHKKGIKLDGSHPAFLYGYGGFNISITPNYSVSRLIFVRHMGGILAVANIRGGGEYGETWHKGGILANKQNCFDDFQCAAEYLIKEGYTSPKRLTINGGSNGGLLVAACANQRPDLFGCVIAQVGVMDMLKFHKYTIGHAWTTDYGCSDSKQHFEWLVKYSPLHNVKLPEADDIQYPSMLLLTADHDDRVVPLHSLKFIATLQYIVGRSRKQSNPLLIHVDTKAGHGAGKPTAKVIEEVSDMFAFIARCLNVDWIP
Source text: as §3, §2

## N#C[C@@H]1CCCN1C(=O)[C@@H]1CCCN1C(=O)CCCc1ccccc1 [KYP-2047]
[1]; Fap KO plasma
  sensitivity of residual GP probe cleaving activity to the inhibitor: sensitive

## N#C[C@@H]1CC(F)(F)CN1C(=O)CNC(=O)c1ccnc2ccccc12 [cpd60]
Circulating FAP activity
  suppression of circulating (plasma) FAP activity: completely suppress; also recorded: undetectable levels; also recorded: completely suppressed
FAP-related activity; bolus p.o.
  change in FAP-related activity: transient decrease
FAP-related activity
  clearance from circulation: rapid clearance
[1]; WT or heterozygous plasma
  sensitivity of GP probe activity to the inhibitor: clearly sensitive

## aP NIRF: identical to aP, but the FRET donor and quencher replaced with Cy5.5 and QSY21
Recombinant human FAP
  cleavage by recombinant human FAP: efficiently cleaves
Tissue FAP activity; 4 hours after 1 nmol i.v., P<0.05
  relative fluorescence intensities normalized to imaging area, KPP versus healthy control pancreata: much greater fluorescence
Tissue FAP activity; KPP group, 4 hours after 1 nmol i.v.
  ex vivo imaging fluorescent signal of pancreata: strong fluorescent signal
Tissue FAP activity; mice, 1 nmol i.v. via tail vein, until euthanasia after 4 hours
  treatment-related adverse effect: No treatment-related adverse effect was observed
Recombinant human PREP
  cleavage by recombinant human PREP: not
